Laboratory results from ChEMBL document CHEMBL2150920, “Discovery of a potent and selective small molecule hGPR91 antagonist” (Bioorg Med Chem Lett, 2011).
pIC50: −log10 of the molar value. Active and inactive are the calls of the source. The rule behind the calls is not given here.

How the values were obtained:
Succinate receptor 1 [1] = target: T1, Succinate receptor 1 (Homo sapiens, UniProt Q9BXA5); assay: Antagonist activity at human GPR91 receptor expressed in CHO-K1 cells co-expressing Galpha and Gqi5 G-protein assessed as inhibition of succinate-induced increase in intracellular calcium level by FLIPR assay; format: functional, cell-based
T1 sequence (Q9BXA5 whole entry): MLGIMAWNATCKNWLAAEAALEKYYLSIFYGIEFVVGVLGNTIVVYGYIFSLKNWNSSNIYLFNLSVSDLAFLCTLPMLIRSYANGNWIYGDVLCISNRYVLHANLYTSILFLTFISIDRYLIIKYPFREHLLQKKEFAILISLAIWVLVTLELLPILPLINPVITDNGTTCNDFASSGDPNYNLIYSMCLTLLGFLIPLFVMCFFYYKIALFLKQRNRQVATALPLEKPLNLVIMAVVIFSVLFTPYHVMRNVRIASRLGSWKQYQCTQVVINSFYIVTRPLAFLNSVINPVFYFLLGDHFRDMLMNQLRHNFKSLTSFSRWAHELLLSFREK

Liver microsomes = assay: Intrinsic clearance in rat liver microsomes preincubated for 5 mins before addition of NADPH measured after 30 mins by LC/MS/MS analysis; format: ADME, Microsome; conditions: 0.5 h
[2] = target: T2, Succinate receptor 1 (Homo sapiens) (UniProt Q9BXA5); assay: Antagonist activity at human GPR91 receptor expressed in CHO-K1 cells co-expressing Galpha and Gqi5 G-protein assessed as inhibition of succinate-induced increase in intracellular calcium level at 10 uM by FLIPR assay; format: functional, cell-based
T2 sequence (whole entry): T1 sequence (Q9BXA5 whole entry)

[3] = Terminal half life in Wistar rat at 5 mg/kg, iv; format: ADME, organism-based; set-up: dose 5 mg/kg, route intravenous; conditions: in vivo, read-out: beta t1/2 (converted)
[4] = target: 2-oxoglutarate receptor 1 (Homo sapiens, UniProt Q96P68); assay: Antagonist activity at human GPR99 receptor expressed in CHO-K1 cells co-expressing Galpha and Gqi5 G-protein assessed as inhibition of succinate-induced increase in intracellular calcium level at by FLIPR assay; format: functional, cell-based
[5] = Cmax in Wistar rat at 5 mg/kg, iv by LC/MS/MS analysis; format: ADME, organism-based; set-up: dose 5 mg/kg, route intravenous; conditions: in vivo
[6] = Plasma clearance in Wistar rat at 5 mg/kg, iv; format: ADME, organism-based; set-up: dose 5 mg/kg, route intravenous
[7] = Volume of distribution at steady state in Wistar rat at 5 mg/kg, iv; format: ADME, organism-based; set-up: dose 5 mg/kg, route intravenous; conditions: in vivo, read-out: Vdss
Succinate receptor 1 [8] = target: T3, Succinate receptor 1 (Rattus norvegicus, UniProt Q6IYF9); assay: Antagonist activity at rat GPR91 receptor expressed in CHO-K1 cells co-expressing Galpha and Gqi5 G-protein assessed as inhibition of succinate-induced increase in intracellular calcium level by FLIPR assay; format: functional, cell-based
T3 sequence (Q6IYF9 whole entry): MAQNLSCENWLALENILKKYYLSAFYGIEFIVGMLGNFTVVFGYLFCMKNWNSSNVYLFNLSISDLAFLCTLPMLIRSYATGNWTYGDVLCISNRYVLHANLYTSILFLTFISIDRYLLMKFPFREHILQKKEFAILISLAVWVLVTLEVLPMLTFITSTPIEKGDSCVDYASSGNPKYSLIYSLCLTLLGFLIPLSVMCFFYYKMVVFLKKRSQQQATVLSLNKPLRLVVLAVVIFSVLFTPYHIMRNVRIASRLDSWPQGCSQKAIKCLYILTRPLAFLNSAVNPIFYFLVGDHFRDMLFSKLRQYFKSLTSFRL

Chain of 2-oxoglutarate receptor 1 (Q96P68 whole entry, looked up): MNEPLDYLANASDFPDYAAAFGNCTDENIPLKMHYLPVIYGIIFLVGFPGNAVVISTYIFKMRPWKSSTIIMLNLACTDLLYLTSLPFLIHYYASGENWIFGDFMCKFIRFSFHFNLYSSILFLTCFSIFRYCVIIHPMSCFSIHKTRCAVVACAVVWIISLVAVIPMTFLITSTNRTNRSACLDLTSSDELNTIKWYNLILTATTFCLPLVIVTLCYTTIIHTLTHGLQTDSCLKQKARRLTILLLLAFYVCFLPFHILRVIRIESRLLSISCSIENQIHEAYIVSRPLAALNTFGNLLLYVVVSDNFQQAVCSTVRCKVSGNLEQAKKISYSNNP

| Compound | pIC50 (Succinate receptor 1 [1]) | Intrinsic clearance (Liver microsomes) | further results |
| --- | --- | --- | --- |
| O=C(Cc1ccc(-c2ccc3cccnc3n2)cc1)NCc1ccc(-c2ccc(F)c(Cl)c2)cc1 | 7.51 | 0.84 nmol/min/mg |  |
| O=C(Cc1ccc(-c2ccc3cccnc3n2)cc1)NCc1ccc(-c2ccc(F)c(C(F)(F)F)c2)cc1 | 7.12 | 0.28 nmol/min/mg |  |
| C[C@H](NC(=O)C(O)(c1ccc(-c2ccc3cccnc3n2)cc1)C(F)(F)F)c1ccc(-c2ccc(F)c(C(F)(F)F)c2)cc1 (some centres not stated) | 7.80 | 0.17 nmol/min/mg |  |
| C[C@H](NC(=O)C(O)c1ccc(-c2ccc3cccnc3n2)cc1)c1ccc(-c2ccc(F)c(C(F)(F)F)c2)cc1 (some centres not stated) | 7.74 | 0.2 nmol/min/mg |  |
| O=C(CCCc1ccc2cccnc2n1)NCc1cnn(-c2ccc(F)c(C(F)(F)F)c2)c1 | 6.68 | 0.18 nmol/min/mg |  |
| O=C(CCCc1ccc2cccnc2n1)NCc1nnc(-c2ccc(F)c(C(F)(F)F)c2)o1 | 6.00 |  |  |
| O=C(CCCc1ccc2cccnc2n1)NCc1ccc(-c2ccc(F)c(C(F)(F)F)c2)cc1 | 7.66 | 0.1 nmol/min/mg |  |
| FC(F)(F)c1cccc(-c2ccc(-c3nnc(CCCc4ccc5cccnc5n4)o3)cc2)c1 | 6.70 | 0.3 nmol/min/mg |  |
| O=C(CCCc1ccc2cccnc2n1)NCc1ccc(-c2cccc(C(=O)O)c2)cc1 |  | 0.03 nmol/min/mg | inhibition [2]: inactive |
| Fc1ccc(-c2ccc(-c3nnc(CCCc4ccc5cccnc5n4)[nH]3)cc2)cc1Cl | 6.00 | 0.14 nmol/min/mg |  |
| O=C(CCCc1ccc2cccnc2n1)NCc1ccc(-c2ccc(F)c(C(F)(F)F)c2)nn1 | 6.14 |  |  |
| Fc1ccc(-c2nnc(CCCCc3ccc4cccnc4n3)o2)cc1OC(F)(F)F | 5.40 |  |  |
| C[C@H](NC(=O)C(C)(C)c1ccc(-c2ccc3cccnc3n2)cc1)c1ccc(-c2ccc(F)c(C(F)(F)F)c2)cc1 | 7.85 | 0.25 nmol/min/mg |  |
| O=C(CCCc1ccc2cccnc2n1)NCc1csc(-c2cccc(Cl)c2)n1 | 6.15 | 0.4 nmol/min/mg |  |
| CC(=O)Nc1cccc(-c2ccc(CNC(=O)CCCc3ccc4cccnc4n3)cc2)c1 |  |  | inhibition [2]: inactive |
| CC(C)(C(=O)NCc1ccc(-c2ccc(F)c(C(F)(F)F)c2)cc1)c1ccc(-c2ccc3cccnc3n2)cc1 | 7.77 | 0.28 nmol/min/mg |  |
| Clc1cccc(-c2ccc(-c3nnc(CCCc4ccc5cccnc5n4)o3)cc2)c1 | 7.40 | 0.3 nmol/min/mg | half-life [3]: 54 min; pIC50 [4]: 5.30; Cmax [5]: 9.3 µM; clearance [6]: 51 mL/min/kg; Vd [7]: 1.9 L/kg; pIC50 (Succinate receptor 1 [8]): 7.17 |
| O=C(CCCc1ccc2cccnc2n1)NCc1cc(-c2cccc(Cl)c2)no1 | 7.19 | 0.09 nmol/min/mg |  |
| O=C(CCCc1ccc2cccnc2n1)NCc1nnc(-c2ccc(F)c(C(F)(F)F)c2)s1 | 6.57 |  |  |
| N#Cc1cccc(-c2ccc(CNC(=O)CCCc3ccc4cccnc4n3)cc2)c1 |  | 0.1 nmol/min/mg | inhibition [2]: inactive |
| O=C(CCCc1ccc2cccnc2n1)NCc1nc(-c2cccc(Cl)c2)cs1 | 6.52 | 0.18 nmol/min/mg |  |
| O=C(NCc1ccc(-c2ccc(F)c(C(F)(F)F)c2)cc1)C(O)(c1ccc(-c2ccc3cccnc3n2)cc1)C(F)(F)F (configuration not stated) | 7.47 | 0.2 nmol/min/mg |  |
| O=C(CCCc1ccc2cccnc2n1)NCc1ccc(-c2cccc(F)c2C(=O)O)cc1F |  | 0.08 nmol/min/mg | inhibition [2]: inactive |
| COc1cccc(-c2ccc(CNC(=O)CCCc3ccc4cccnc4n3)cc2)c1 | 6.00 | 0.6 nmol/min/mg |  |
| CCc1cccc(-c2ccc(CNC(=O)CCCc3ccc4cccnc4n3)cc2)c1 | 7.19 | 0.4 nmol/min/mg |  |

| Compound | pIC50 (Succinate receptor 1 [1]) | Intrinsic clearance (Liver microsomes) | further results |
| --- | --- | --- | --- |
| O=C(CCCc1ccc2cccnc2n1)NCc1ncc(-c2ccc(F)c(C(F)(F)F)c2)cn1 | 6.70 |  |  |
| CC(NC(=O)CCCc1ccc2cccnc2n1)c1ccc(-c2cccc(C(F)(F)F)c2)cc1 (configuration not stated) | 7.80 | 0.25 nmol/min/mg |  |
| Fc1ccc(-c2nnc(CCCCc3ccc4cccnc4n3)o2)cc1C(F)(F)F | 5.70 | 0.16 nmol/min/mg |  |
| C[C@H](NC(=O)C(F)(F)c1ccc(-c2ccc3cccnc3n2)cc1)c1ccc(-c2ccc(F)c(C(F)(F)F)c2)cc1 | 7.72 | 0.14 nmol/min/mg |  |
| Cc1cc(-c2ccc(CNC(=O)CCCc3ccc4cccnc4n3)cc2)ccc1Cl | 6.52 |  |  |
| FC(F)(F)Oc1ccc(-c2nnc(CCCCc3ccc4cccnc4n3)o2)cc1 | 5.52 |  |  |
| FC(F)(F)c1ccc(-c2nnc(CCCCc3ccc4cccnc4n3)o2)cc1C(F)(F)F | 6.77 | 0.3 nmol/min/mg |  |
| CCOC(=O)c1cccc(-c2ccc(CNC(=O)CCCc3ccc4cccnc4n3)cc2)c1 |  |  | inhibition [2]: inactive |
| NC(=O)c1cccc(-c2ccc(CNC(=O)CCCc3ccc4cccnc4n3)cc2)c1 |  | 0.04 nmol/min/mg | inhibition [2]: inactive |
| O=C(O)Cc1cccc(-c2ccc(CNC(=O)CCCc3ccc4cccnc4n3)cc2)c1 |  |  | inhibition [2]: inactive |
| Fc1ccc(-c2ccc(-c3nnc(CCCc4ccc5cccnc5n4)o3)cc2)cc1Cl | 7.00 | 0.2 nmol/min/mg |  |
| O=C(CCCc1ccc2cccnc2n1)NCc1ccc(-c2cccc(C(F)(F)F)c2)cc1F | 7.39 | 0.34 nmol/min/mg |  |
| O=C(CCCc1ccc2cccnc2n1)NCc1cc(-c2ccc(F)c(Cl)c2)no1 | 7.05 | 0.11 nmol/min/mg |  |
| CS(=O)(=O)c1cccc(-c2ccc(CNC(=O)CCCc3ccc4cccnc4n3)cc2)c1 |  | 0.1 nmol/min/mg | inhibition [2]: inactive |
| O=C(NCc1ccc(-c2ccccc2)cc1)c1ccc(-c2ccc3cccnc3n2)cc1 |  | 0.02 nmol/min/mg | inhibition [2]: inactive |
| Clc1cccc(-c2ccc(-c3nnc(CCCc4ccc5cccnc5n4)s3)cc2)c1 | 5.52 |  |  |
| O=C(CCCc1ccc2cccnc2n1)NCc1cnc(-c2ccc(F)c(C(F)(F)F)c2)nc1 | 7.31 | 0.2 nmol/min/mg |  |
| O=C(CCCc1ccc2cccnc2n1)NCc1ccc(-c2cccc(OC(F)(F)F)c2)cc1 | 6.30 | 0.2 nmol/min/mg |  |
| O=C(CCCc1ccc2cccnc2n1)NCc1ccc(-c2ccc(F)c(Cl)c2)cc1 | 7.42 | 0.2 nmol/min/mg |  |
| FC(F)(F)c1ccc(-c2nnc(CCCCc3ccc4cccnc4n3)o2)cc1 | 5.52 | 0.07 nmol/min/mg |  |
| NC(C(=O)NCc1ccc(-c2ccc(F)c(C(F)(F)F)c2)cc1)c1ccc(-c2ccc3cccnc3n2)cc1 (configuration not stated) | 6.48 | 0.15 nmol/min/mg |  |
| O=C(CCCc1ccc2cccnc2n1)NCc1ccc(-c2ccccc2)cc1 | 6.00 | 0.17 nmol/min/mg |  |
| O=C(CCCc1ccc2cccnc2n1)NCc1ccc(-c2cccc(CO)c2)cc1 |  | 0.1 nmol/min/mg | inhibition [2]: inactive |
| Clc1ccc(-c2nnc(CCCCc3ccc4cccnc4n3)o2)cc1 | < 5.52 |  |  |
